From ChEMBL document CHEMBL3259619, “Antibacterial activity of a series of N2,N4-disubstituted quinazoline-2,4-diamines” (J Med Chem, 2014)
In brackets after ≈: the same amount, converted by molar mass. Activity calls are given as the source filed them.

Key:
Staphylococcus aureus [1] = test: Antimicrobial activity against N2,N4-dibenzylquinazoline-2,4-diamine-induced methicillin-resistant Staphylococcus aureus CBD-635 mutant M3 assessed as complete inhibition of bacterial growth after overnight incubation; format: functional
Staphylococcus aureus [2] = test: Antimicrobial activity against N2,N4-dibenzylquinazoline-2,4-diamine-induced methicillin-resistant Staphylococcus aureus CBD-635 mutant M1 assessed as complete inhibition of bacterial growth after overnight incubation; format: functional
Staphylococcus aureus [3] = test: Antimicrobial activity against methicillin-resistant Staphylococcus aureus CBD-635 assessed as complete inhibition of bacterial growth after overnight incubation; format: functional
Staphylococcus aureus [4] = test: Antimicrobial activity against methicillin-resistant Staphylococcus aureus CBD-635 assessed as complete inhibition of bacterial growth at 5 times MIC after overnight incubation in presence of tetrahydrofolic acid; format: functional, organism-based
Staphylococcus aureus [5] = test: Antimicrobial activity against N2,N4-dibenzylquinazoline-2,4-diamine-induced methicillin-resistant Staphylococcus aureus CBD-635 mutant M5 assessed as complete inhibition of bacterial growth after overnight incubation; format: functional
Staphylococcus aureus [6] = test: Antimicrobial activity against N2,N4-dibenzylquinazoline-2,4-diamine-induced methicillin-resistant Staphylococcus aureus CBD-635 mutant M4 assessed as complete inhibition of bacterial growth after overnight incubation; format: functional
Staphylococcus aureus [7] = test: Antimicrobial activity against N2,N4-dibenzylquinazoline-2,4-diamine-induced methicillin-resistant Staphylococcus aureus CBD-635 mutant M2 assessed as complete inhibition of bacterial growth after overnight incubation; format: functional
Staphylococcus aureus [8] = test: Antimicrobial activity against N2,N4-dibenzylquinazoline-2,4-diamine-induced methicillin-resistant Staphylococcus aureus CBD-635 mutant M7 assessed as complete inhibition of bacterial growth after overnight incubation; format: functional
Staphylococcus aureus [9] = test: Antimicrobial activity against N2,N4-dibenzylquinazoline-2,4-diamine-induced methicillin-resistant Staphylococcus aureus CBD-635 mutant M6 assessed as complete inhibition of bacterial growth after overnight incubation; format: functional
Staphylococcus aureus [10] = test: Bactericidal activity against methicillin-resistant Staphylococcus aureus CBD-635 assessed as bacterial killing; format: functional
Staphylococcus aureus [11] = test: Antimicrobial activity against Staphylococcus aureus infected Galleria mellonella assessed as increase in larvae survival at 10 times MIC; format: functional
Staphylococcus aureus [12] = test: Antimicrobial activity against trimethoprim-resistant Staphylococcus aureus assessed as complete inhibition of bacterial growth after 24 hrs; format: functional, organism-based
Staphylococcus aureus [13] = test: Antimicrobial activity against quinazoline-resistant Staphylococcus aureus assessed as complete inhibition of bacterial growth after 24 hrs; format: functional, organism-based
Staphylococcus aureus [14] = test: Antimicrobial activity against wild type Staphylococcus aureus in presence of sulfamethoxazole; format: functional
Staphylococcus aureus [15] = test: Antimicrobial activity against Staphylococcus aureus infected Galleria mellonella assessed as increase in larvae survival at 5 times MIC; format: functional
[16] = Cytotoxicity against human A549 cells assessed as cell viability recovery at 1.8 to 8.8 uM by MTT assay relative to untreated control; format: cell-based; details: read-out: Activity
[17] = pampa, pH 4
Staphylococcus aureus [18] = test: Antimicrobial activity against methicillin-resistant Staphylococcus aureus CBD-635 assessed as zone of inhibition at 5 mg/ml after 24 hrs by disk diffusion assay; format: functional; details: CBD-635, 24 h, read-out: IZ
[19] = Lipophilicity, log D of the compound at pH 3; format: physicochemical; details: buffer
[20] = Lipophilicity, log D of the compound at pH 7.4; format: physicochemical; details: buffer
[21] = Cytotoxicity against human A549 cells assessed as cell viability recovery at 440 uM by MTT assay relative to untreated control; format: cell-based; details: read-out: Activity
[22] = Aqueous solubility of the compound at pH 7.4 after 18 hrs incubation by HPLC; format: physicochemical
[23] = Cytotoxicity against human A549 cells assessed as cell viability recovery at 18 uM by MTT assay relative to untreated control; format: cell-based; details: read-out: Activity
[24] = pampa, pH 7.4
[25] = Aqueous solubility of the compound at pH 2 after 18 hrs incubation by HPLC; format: physicochemical
[26] = Cytotoxicity against human A549 cells assessed as cell viability recovery up to 440 uM by MTT assay relative to untreated control; format: cell-based; details: read-out: Activity
Staphylococcus aureus [27] = test: Antimicrobial activity against Staphylococcus aureus; format: functional, organism-based
Trichoderma viride = test: Antimicrobial activity against Trichoderma viride; format: functional
Klebsiella pneumoniae [28] = test: Antimicrobial activity against Klebsiella pneumoniae; format: functional
Streptococcus pyogenes = test: Antimicrobial activity against Streptococcus pyogenes; format: functional
Salmonella typhimurium = test: Antimicrobial activity against Salmonella typhimurium; format: functional, Salmonella enterica subsp. enterica serovar Typhimurium; details: Salmonella enterica
Escherichia coli = test: Antimicrobial activity against Escherichia coli; format: functional
Aspergillus niger = test: Antimicrobial activity against Aspergillus niger; format: functional
Candida albicans = test: Antimicrobial activity against Candida albicans; format: functional
Bacillus subtilis = test: Antimicrobial activity against Bacillus subtilis; format: functional, organism-based
Staphylococcus aureus [29] = test: Antibacterial activity against trimethoprim-resistant Staphylococcus aureus; format: functional
Staphylococcus aureus [30] = test: Antibacterial activity against Staphylococcus aureus infected in mouse assessed as protection of mouse; format: functional
Klebsiella pneumoniae [31] = test: Antimicrobial activity against Klebsiella pneumoniae infected in mouse assessed as survival rate at 100 mg/kg; format: functional
physchem [32] = details: pampa, pH 4
physchem [33] = details: pampa, pH 7.4

Structure (SMILES)	MIC (Staphylococcus aureus [1])	MIC (Staphylococcus aureus [2])	MIC (Staphylococcus aureus [3])	inhibition (Staphylococcus aureus [4])	MIC (Staphylococcus aureus [5])	MIC (Staphylococcus aureus [6])	MIC (Staphylococcus aureus [7])	MIC (Staphylococcus aureus [8])	MIC (Staphylococcus aureus [9])	further results
Cc1ccc(CNc2nc(NCc3ccccc3)c3ccccc3n2)cc1	2.8 µM (≈ 0.992 µg/mL)	28 µM (≈ 9.92 µg/mL)	28 µM (≈ 9.92 µg/mL)	inactive	2.8 µM (≈ 0.992 µg/mL)	2.8 µM (≈ 0.992 µg/mL)	2.8 µM (≈ 0.992 µg/mL)	2.8 µM (≈ 0.992 µg/mL)	2.8 µM (≈ 0.992 µg/mL)	
Clc1ccc(CNc2nc(NCc3ccc(Cl)cc3)c3ccccc3n2)cc1		2.4 µM (≈ 0.982 µg/mL)	2.4 µM (≈ 0.982 µg/mL)	inactive			2.4 µM (≈ 0.982 µg/mL)			MBC50 (Staphylococcus aureus [10]): 7.2 µM (≈ 2.95 µg/mL); Survival (Staphylococcus aureus [11]): 60%; inhibition (Staphylococcus aureus [12]): Active; inhibition (Staphylococcus aureus [13]): Active; fractional inhibitory concentration index (FICI) (Staphylococcus aureus [14]): 0.12; Survival (Staphylococcus aureus [15]): 50%
Cc1ccc(CNc2nc(NCc3ccc(C)cc3)c3ccccc3n2)cc1	2.7 µM (≈ 0.995 µg/mL)	27 µM (≈ 9.95 µg/mL)	27 µM (≈ 9.95 µg/mL)	inactive	2.7 µM (≈ 0.995 µg/mL)	2.7 µM (≈ 0.995 µg/mL)	27 µM (≈ 9.95 µg/mL)	2.7 µM (≈ 0.995 µg/mL)	2.7 µM (≈ 0.995 µg/mL)	
COc1ccc(CNc2nc(NCc3ccccc3)nc3ccccc23)cc1	27 µM (≈ 10 µg/mL)	27 µM (≈ 10 µg/mL)	68 µM (≈ 25.2 µg/mL)	inactive	27 µM (≈ 10 µg/mL)	2.7 µM (≈ 1 µg/mL)	27 µM (≈ 10 µg/mL)	27 µM (≈ 10 µg/mL)	2.7 µM (≈ 1 µg/mL)	
COc1ccc(CNc2nc(NCc3ccccc3)c3ccccc3n2)cc1	0.67 µM (≈ 0.248 µg/mL)	0.67 µM (≈ 0.248 µg/mL)	0.67 µM (≈ 0.248 µg/mL)	inactive	270 µM (≈ 100 µg/mL)	270 µM (≈ 100 µg/mL)	0.67 µM (≈ 0.248 µg/mL)	270 µM (≈ 100 µg/mL)	270 µM (≈ 100 µg/mL)	
Clc1ccc2c(NCc3ccccc3)nc(NCc3ccccc3)nc2c1	2.7 µM (≈ 1.01 µg/mL)	27 µM (≈ 10.1 µg/mL)	27 µM (≈ 10.1 µg/mL)	inactive	2.7 µM (≈ 1.01 µg/mL)	2.7 µM (≈ 1.01 µg/mL)	27 µM (≈ 10.1 µg/mL)	2.7 µM (≈ 1.01 µg/mL)	2.7 µM (≈ 1.01 µg/mL)	
Clc1ccc(CNc2nc(NCc3ccccc3)c3ccccc3n2)cc1	2.7 µM (≈ 1.01 µg/mL)	27 µM (≈ 10.1 µg/mL)	27 µM (≈ 10.1 µg/mL)	inactive	2.7 µM (≈ 1.01 µg/mL)	2.7 µM (≈ 1.01 µg/mL)	2.7 µM (≈ 1.01 µg/mL)	2.7 µM (≈ 1.01 µg/mL)	2.7 µM (≈ 1.01 µg/mL)	
CC(C)Nc1nc(NC2CCCCC2)c2ccccc2n1			3.5 µM (≈ 0.995 µg/mL)	inactive						viability at up to 8.8 µM [16]: > 100%; MBC50 (Staphylococcus aureus [10]): 8.8 µM (≈ 2.5 µg/mL); permeability [17]: 112 ×10⁻⁶ cm/s; Survival (Staphylococcus aureus [11]): 70%; zone of inhibition at 5000 µg/mL (Staphylococcus aureus [18]): 13 mm; logD [19]: 3.56; inhibition (Staphylococcus aureus [12]): Active; logD [20]: 4.69; inhibition (Staphylococcus aureus [13]): Active; viability at 440 µM [21]: 70.3%; solubility at 18 h [22]: ≤ 30 µM; viability at 18 µM [23]: 98.6%; fractional inhibitory concentration index (FICI) (Staphylococcus aureus [14]): 0.1; Survival (Staphylococcus aureus [15]): 40%; permeability [24]: 783 ×10⁻⁶ cm/s; solubility at 18 h [25]: ≥ 30 µM; viability [26]: > 60%
c1ccc2c(c1)cc1c3ccccc3nc(-c3csc4ccccc34)n21										MIC (Staphylococcus aureus [27]): 2 µg/mL; MIC (Trichoderma viride): 2 µg/mL (≈ 5.71 µM); MIC (Klebsiella pneumoniae [28]): 2 µg/mL; MIC (Streptococcus pyogenes): 2 µg/mL (≈ 5.71 µM); MIC (Salmonella typhimurium): 2 µg/mL (≈ 5.71 µM); MIC (Escherichia coli): 2 µg/mL; MIC (Aspergillus niger): 2 µg/mL (≈ 5.71 µM); MIC (Candida albicans): 2 µg/mL (≈ 5.71 µM); MIC (Bacillus subtilis): 2 µg/mL (≈ 5.71 µM)
Clc1ccc(CNc2nc(NCc3ccccc3)nc3ccccc23)cc1	2.7 µM (≈ 1.01 µg/mL)	2.7 µM (≈ 1.01 µg/mL)	67 µM (≈ 25.1 µg/mL)	inactive	2.7 µM (≈ 1.01 µg/mL)	2.7 µM (≈ 1.01 µg/mL)	2.7 µM (≈ 1.01 µg/mL)	2.7 µM (≈ 1.01 µg/mL)	2.7 µM (≈ 1.01 µg/mL)	
CCCCNc1nc(NCc2ccccc2)c2ccc(Cl)cc2n1	0.73 µM (≈ 0.249 µg/mL)	0.73 µM (≈ 0.249 µg/mL)	0.73 µM (≈ 0.249 µg/mL)	inactive	0.73 µM (≈ 0.249 µg/mL)	0.73 µM (≈ 0.249 µg/mL)	0.73 µM (≈ 0.249 µg/mL)	0.73 µM (≈ 0.249 µg/mL)	0.73 µM (≈ 0.249 µg/mL)	
Cc1cc2nc(-c3nccs3)n(-c3ccc4c(N)nc(N)nc4c3)c2cc1C										MIC (Staphylococcus aureus [29]): 0.25 µg/mL (≈ 0.645 µM); PD50 (Staphylococcus aureus [30]): 2 mg/kg
Cc1ccc(CNc2nc(NCc3ccccc3)nc3ccccc23)cc1	28 µM (≈ 9.92 µg/mL)	2.8 µM (≈ 0.992 µg/mL)	71 µM (≈ 25.2 µg/mL)	inactive	28 µM (≈ 9.92 µg/mL)	28 µM (≈ 9.92 µg/mL)	2.8 µM (≈ 0.992 µg/mL)	28 µM (≈ 9.92 µg/mL)	28 µM (≈ 9.92 µg/mL)	
COc1ccc(CNc2nc(NCc3ccc(OC)cc3)c3ccccc3n2)cc1	> 250 µM	> 250 µM	25 µM (≈ 10 µg/mL)	inactive	125 µM (≈ 50.1 µg/mL)	> 250 µM	> 250 µM	> 250 µM	125 µM (≈ 50.1 µg/mL)	
COc1cc2nc(N3CCC(Nc4ccc(C(=O)O)cc4)CC3)nc(N)c2cc1OC										MIC (Staphylococcus aureus [27]): 12 µM; MIC (Klebsiella pneumoniae [28]): 12 µM; survival at 100 mg/kg (Klebsiella pneumoniae [31]): 40%; MIC (Escherichia coli): 2 µM
CNC(=C[N+](=O)[O-])NCCSCc1ccc(CN(C)C)o1.Cl [RANITIDINE HYDROCHLORIDE]										Papp (physchem [32]): 5.2 ×10⁻⁶ cm/s; Papp (physchem [33]): 2.2 ×10⁻⁶ cm/s
Cc1ccc(Nc2nc(-c3ccccc3)nc3ccccc23)cc1										EC50 (Staphylococcus aureus [27]): 0.8 µg/mL (≈ 2.57 µM); MIC (Staphylococcus aureus [27]): 10 µg/mL; EC50 (Bacillus subtilis): 0.7 µg/mL (≈ 2.25 µM); MIC (Bacillus subtilis): 1 µg/mL (≈ 3.21 µM)
